Test results taken from patent US7410986B2, “4-6-diphenyl pyridine derivatives as antiinflammatory agents” (Bayer Aktiengesellschaft, priority 2000, dated 2008).
Counter-ions that a name gives are not always drawn. Like-named read-outs stand apart in the source and are kept apart here.

Columns and labels:
human IKK-β = target: T1, human IKK-β (Homo sapiens, UniProt O14920); experiment: IKK-β kinase inhibitory assay; type: biochemical; conditions: compounds of about 40 to 90% purity, read-out: In vitro activity grade (invitro, IC50)
T1 construct: A cDNA fragment encoding human IKK-β open reading frame was generated by PCR; His; made in house; host or cells: Sf21 insect cells (baculovirus); the GST-IκBα substrate was made in E. coli
T1 sequence (O14920 1-756): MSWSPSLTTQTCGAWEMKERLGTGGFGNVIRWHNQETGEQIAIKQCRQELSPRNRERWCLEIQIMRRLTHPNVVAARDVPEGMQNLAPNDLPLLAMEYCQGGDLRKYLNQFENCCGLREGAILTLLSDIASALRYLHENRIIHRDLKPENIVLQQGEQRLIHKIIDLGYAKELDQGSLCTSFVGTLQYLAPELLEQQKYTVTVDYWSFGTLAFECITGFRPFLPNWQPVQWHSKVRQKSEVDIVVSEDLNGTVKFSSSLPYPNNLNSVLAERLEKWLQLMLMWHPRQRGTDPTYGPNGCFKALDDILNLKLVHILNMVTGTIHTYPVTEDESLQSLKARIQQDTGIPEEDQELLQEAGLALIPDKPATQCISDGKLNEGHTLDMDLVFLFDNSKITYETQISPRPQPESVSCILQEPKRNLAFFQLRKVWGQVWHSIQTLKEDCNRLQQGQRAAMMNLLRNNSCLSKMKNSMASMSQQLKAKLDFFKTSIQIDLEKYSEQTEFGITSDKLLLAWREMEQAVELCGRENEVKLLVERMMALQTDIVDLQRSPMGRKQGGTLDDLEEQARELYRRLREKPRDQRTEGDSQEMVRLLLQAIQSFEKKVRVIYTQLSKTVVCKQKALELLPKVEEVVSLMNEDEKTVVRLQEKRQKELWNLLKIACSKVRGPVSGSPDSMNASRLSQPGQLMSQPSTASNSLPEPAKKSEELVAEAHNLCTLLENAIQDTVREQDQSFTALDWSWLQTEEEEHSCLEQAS
From the text: IKK-β Kinase Inhibitory Assay.
• (1) Preparation of IKK-β Kinase Protein. • A cDNA fragment encoding human IKK-β open reading frame was generated by PCR with the use of a pair of primers designed from the published sequence (Woronicz J D et al. (1997) Science 278,866-869). A template was obtained from Quickclone cDNA (Clontech) using Elongase™ Amplification kit (Life Technologies). The DNA fragments generated by PCR were gel-purified and subcloned into pBluescript. The cDNA fragment cloned in pBluescript was inserted into pcDNA3.1/His C KpnI/NotI, and transferred into pVL1393 SmaI/XbaI (Pharmingen) to construct a baculovirus transfer vector. Then the vector, together with the linearized baculovirus (BaculoGold™, Pharmingen) was used to transfect Sf21 cells (Invitrogen, San Diego, Calif.). Generated recombinant baculovirus was cloned and amplified in Sf21 cells, grown in TNM-FH insect cell medium (Life Technologies, Inc.) supplemented with 10% FCS, […] Gentamycin, 0.1% Pluronic F-68 (Life Technologies, Inc.) as suspension culture (200 ml in 1 L Erlenmeyer flask; 27° C.; 130 rpm). Sf21 cells were infected with this amplified virus with a multiplicity of infection of 5 following standard protocols (Crossen R, Gruenwald S (1997) Baculovirus Expression Vector System Instruction Manual, Pharmingen Corporation) and harvested 48 hrs. later. The cells were lysed to obtain the produced chimeric protein of IKK-β kinase fused by histidine (His-tagged IKK-beta). • (2) The Preparation of Purified GST-IκBα Fusion Proteins • An expression vector containing the nucleotide sequence encoding fusion protein of GST with amino acid residues 1 to 54 of IκBα under the control of an IPTG-inducible promoter was constructed. The expression vector was introduced in E. coli and the transformant was cultured and lysed to obtain a GST-IκBα fusion protein. Then the resulting GST-IκBα fusion protein was purified and biotinated for kinase assay. • (3) The Measurement of IKK-β Kinase Activity • The 96-well format kinase assay of IKK-β was performed to test the inhibitory activity of the compounds of the present invention. First, 5 μl of a test compound was put in the presence of 2.5% dimethyl sulfoxide (DMSO) in each well in a U-bottomed 96-well plate (Falcon). For control wells of background (BG) and total phosphorylation (TP), 5 μl of 2.5% DMSO was put. Recombinant IKK-β (final 0.6 μg/ml) and bio-GST-IκBα (1-54) (final 0.2 μM) were diluted in 25 μl of 2×kinase buffer β (40 mM Tris-HCl, pH 7.6, 40 mM MgCl2, 40 mM β-glycerophosphate, 40 mM p-nitrophenyl-phosphate, 2 mM EDTA, 40 mM creatine phosphate, 2 mM DTT, 2 mM Na3VO4, 0.2 mg/ml BSA and 0.8 mM phenylmethylsulfonyl fluoride) and transferred to the 96-well plate. Bio-GST-IκBα (1-54) in 25 μl of 2×kinase buffer β without IKK-β was transferred to BG wells. Then 20 μl of 12.5 μM ATP, 62.5 μCi/ml [γ-^33P] ATP (Amersham Pharmacia Biotech) was added and the resulting mixture was incubated for 2 hrs. at room temperature. The kinase reactions were terminated by the addition of 150 μl of termination buffer (100 mM EDTA, 1 mg/ml BSA, 0.2 mg NaN3). One handred and fifty μl of the sample was transferred to a streptavidin-coated, white MTP (Steffens Biotechniche Analysen GmbH #08114E14. FWD) to capture the biotinylated substrates. After 1 hr. of incubation, non-bound radioactivity was eliminated by washing the wells five times with 300 μl of washing buffer including 0.9% NaCl and 0.1% (w/v) Tween-20 with the use of a MW-96 plate washer (BioTec). The bound radioactivity was determined after the addition of 170 μl MicroScint-PS scintillation cocktail (Packard) using a TopCount scintillation counter. Syk Tyrosine Kinase Inhibitory Assay for Selectivity. • (1) Preparation of Syk Protein • A cDNA fragment encoding human Syk openreading frame was cloned from total RNA of human Burkitt's lymphoma B cell lines, Raji (American Type Culture Collection), with the use of RT-PCR method. […]

[1] = test system: RANTES production in response to TNF-α from A549 cells; experiment: RANTES production in response to TNF-α from A549 cells; type: cell-based, human; conditions: 100 ng/ml TNF-α, compounds of about 40 to 90% purity, read-out: Cellular activity grade (A549, IC50)

| SMILES | IC50 (human IKK-β) [µM] | IC50 ([1]; Homo sapiens, A549, 24 h) [µM] | IC50 ([1]; 24 hrs) [µM] |
| --- | --- | --- | --- |
| CCN1CCN(CC(=O)Nc2cccc(-c3cc(-c4ccccc4O)nc(N)c3C#N)c2)CC1 [Example 4-06] | 0.5 to 2 | 1 to 10 |  |
| N#Cc1c(-c2cccc(NC(=O)C3CCC(=O)N3)c2)cc(-c2ccccc2O)nc1N (stereo not shown) [Example 1-05] | 2 to 10 | > 10 |  |
| N#Cc1c(-c2cccc(NC(=O)CNCC3CC3)c2)cc(-c2ccccc2O)nc1N [Example 4-18] | < 0.5 | 1 to 10 |  |
| CC(=O)Nc1ccc(-c2cc(-c3ccccc3O)nc(N)c2CO)cc1O [Example 8-05] | < 0.5 |  | 1 to 10 |
| N#Cc1c(-c2ccc(N3CCC[C@H]3CO)c(NC(=O)CCN3CCCCC3)c2)cc(-c2ccccc2O)nc1N [Example 3-12] | 0.5 to 2 | 1 to 10 |  |
| N#Cc1c(-c2ccc(Cl)c(NC(=O)CNCC3CC3)c2)cc(-c2ccccc2O)nc1N [Example 4-30] | 0.5 to 2 | > 10 |  |
| N#Cc1c(-c2ccc(Cl)c(NC(=O)CCN)c2)cc(-c2ccccc2O)nc1N [Example 2-13] | < 0.5 | 1 to 10 |  |
| Cc1ccc(O)c(-c2cc(-c3cccc(NC(=O)CCN4CCCCC4)c3)c(C#N)c(N)n2)c1 [Example 2-07] | 2 to 10 | > 10 |  |
| N#Cc1c(-c2ccccc2C(=O)NCCN2CCCCC2)cc(-c2ccccc2O)nc1N [Example 6-03] | < 0.5 | 1 to 10 |  |
| CCN1CCC(N(CC)CCC(=O)Nc2cccc(-c3cc(-c4ccccc4O)nc(N)c3C#N)c2)C1 (stereo not shown) [Example 4-16] | 0.5 to 2 | 1 to 10 |  |
| N#Cc1c(-c2cccc(NC(=O)[C@@H](N)CC(=O)O)c2)cc(-c2ccccc2O)nc1N [Example 2-03] | 0.5 to 2 | > 10 |  |
| CS(=O)(=O)Nc1cccc(-c2cc(-c3ccccc3O)nc(N)c2C#N)c1 [Example 1-06] | 2 to 10 | 1 to 10 |  |
| CCN(CCO)c1ccc(-c2cc(-c3ccccc3O)nc(N)c2C#N)cc1NC(=O)CCN [Example 3-05] | 0.5 to 2 | 1 to 10 |  |
| N#Cc1c(-c2cccc(NC(=O)CCN3CCCCC3)c2)cc(-c2ccccc2O)nc1N [Example 2-1, N-{3-[2-amino-3-cyano-6-(2-hydroxyphenyl)-4-pyridinyl]phenyl}-3-(1-piperidinyl)propanamide hydrochloride] | 0.5 to 2 | 1 to 10 |  |
| N#Cc1c(-c2cccc(NC(=O)CCN3CCC(C(=O)O)CC3)c2)cc(-c2ccccc2O)nc1N [Example 4-28] | 2 to 10 | > 10 |  |
| CCCCNCC(=O)Nc1cc(-c2cc(-c3ccccc3O)nc(N)c2C#N)ccc1OCC1CC1 [Example 4-33] | > 10 | > 10 |  |

| SMILES | IC50 (human IKK-β) [µM] | IC50 ([1]; Homo sapiens, A549, 24 h) [µM] | IC50 ([1]; 24 hrs) [µM] |
| --- | --- | --- | --- |
| CC(=O)Nc1ccc(-c2cc(-c3ccccc3O)nc(N)c2CO)cc1O [Example 8-04] | < 0.5 | < 1 |  |
| CCN(CC)c1ccc(-c2cc(-c3ccccc3O)nc(N)c2C#N)cc1NC(=O)CCN1CCCCC1 [Example 3-13] | 2 to 10 | 1 to 10 |  |
| N#Cc1c(-c2cccc(NC(=O)C[C@H](N)C(=O)O)c2)cc(-c2ccccc2O)nc1N [Example 2-02] | 0.5 to 2 |  | > 10 |
| N#Cc1c(-c2ccc(N3CCCC3)c(NC(=O)CCN3CCCCC3)c2)cc(-c2ccccc2O)nc1N [Example 3-1, N-[5-[2-amino-3-cyano-6-(2-hydroxyphenyl)-4-pyridinyl]-2-(1-pyrrolidinyl)phenyl]-3-(1-piperidinyl)propanamide hydrochloride] | 0.5 to 2 | 1 to 10 |  |
| COCCNCC(=O)Nc1cc(-c2cc(-c3ccccc3O)nc(N)c2C#N)ccc1N1CCC(NC(=O)C(F)(F)F)C1 (stereo not shown) [Example 4-37] | < 0.5 | 1 to 10 |  |
| COCCNCC(=O)Nc1cc(-c2cc(-c3ccccc3O)nc(N)c2C#N)ccc1Cl [Example 4-25] | < 0.5 | > 10 |  |
| N#Cc1c(-c2cccc(NC(=O)C(O)CCC(=O)O)c2)cc(-c2cc(F)ccc2O)nc1N (stereo not shown) [Example 1-16] | 0.5 to 2 | > 10 |  |
| N#Cc1c(-c2ccc(Cl)c(NC(=O)C(O)CCC(=O)O)c2)cc(-c2ccccc2O)nc1N (stereo not shown) [Example 1-15] | < 0.5 | > 10 |  |
| CC(C)C[C@H](N)C(=O)Nc1cc(-c2cc(-c3ccccc3O)nc(N)c2C#N)ccc1N1CCC[C@H]1CO [Example 3-11] | 0.5 to 2 | 1 to 10 |  |
| CC(=O)N1CCN(CC(=O)Nc2cccc(-c3cc(-c4ccccc4O)nc(N)c3C#N)c2)CC1 [Example 4-05] | 2 to 10 | > 10 |  |
| N#Cc1c(-c2cccc(NC(=O)C[C@H](N)C(=O)O)c2)cc(-c2ccccc2O)nc1N [Example 1-09] | < 0.5 | > 10 |  |
| CCNc1ccc(-c2cc(-c3c(O)cccc3OCC3CC3)nc(N)c2CO)cc1O [Example 8-1, 2-[6-amino-4-[4-(ethylamino)-3-hydroxyphenyl]-5-(hydroxymethyl)-2-pyridinyl]-3-(cycloproylmethoxy)phenol hydrochloride] | 0.5 to 2 |  |  |
| CC(=O)Nc1ccc(-c2cc(-c3c(O)cccc3OCC3CC3)nc(N)c2CO)cc1O [Example 8-3, N-{4-[2-amino-6-[2-(cyclopropylmethoxy)-6-hydroxyphenyl]-3-(hydroxymethyl)-4-pyridinyl]-2-hydroxyphenyl}acetamide hydrochloride] | < 0.5 |  |  |
| CCn1c(=O)oc2cc(-c3cc(-c4c(O)cccc4OCC4CC4)nc4c3COC(=O)N4)ccc21 [Example 8-2, 7-[2-(cyclopropylmethoxy)-6-hydroxyphenyl-5-(3-ethyl-2-oxo-2,3-dihydro-1,3-benzoxazol-6-yl)-1,4-dihydro-2H-pyrido[2,3-d][1,3]oxazin-2-one hydrochloride] | 2 to 10 |  |  |
| Nc1cc(-c2cccc(NC(=O)CNCC3CC3)c2)cc(-c2ccccc2O)n1 [Example 4-39] | 2 to 10 |  |  |
